According to patent US9149572B2, “Chondroitin sulfate having decreased molecular weight and use thereof” (Seikagaku Corporation, priority 2007, dated 2015):

Columns and labels:
[1] = system: AGE production; experiment: Inhibition of AGE production (glucose and bovine serum albumin, fluorescence), Example 5; format: biochemical; conditions: positive control substance 1 mM; 37° C., 4 weeks
Method: An experiment was performed according to the method of T. Kiho et al. (Biosci Biotechnol Biochem, 68: 200, 2004). To be more specific, a test substance was dissolved in 0.1 M phosphate buffer (pH 7.4) containing 500 mM glucose and 10 mg/mL bovine serum albumin at a concentration of 0.1% (w/v), and the resulting solution was incubated at 37° C. for 4 weeks. After 4 weeks, a value of fluorescence emitted by AGE was measured at an excitation light wavelength of 355 nm and a measurement wavelength of 460 nm, and the amount of produced AGE was determined, and then, an inhibition rate of AGE production was calculated according to the following calculation equation. Inhibition rate of AGE production(%)=[1−(Fluorescence value when test substance was added)/(Fluorescence value when test substance was not added)]×100 [Equation 1] (Experimental Results)
Incidentally, as the test substance, the following substances were used. Further, as a positive control substance, 1 mM aminoguanidine (a known AGE production inhibitor) was used.

[2] = system: HL-60 cells differentiated into neutrophil-like cells; experiment: ROS scavenging in phorbol ester-stimulated HL-60 cells (L-012 luminescence), Example 6; format: cell-based
Method: An experiment was performed according to the method of Olga T. et al. (Toxicological Science, 76: 376, 2003). To be more specific, HL-60 cells differentiated into neutrophil-like cells were suspended in a culture medium at 2×10^6 cells/mL, and the resulting cell suspension was added to a 96-well plate at 50 μL/well. Then, a test substance was added to the well at 50 μL/well (final concentration: 0.03%, 0.1%, and 0.3% (w/v)). Further, the culture medium was added to the well as a negative control at 50 μL/well. […] As a background, the plate to which the culture medium was added in place of the phorbol ester was incubated in the same manner. After completion of the incubation, a luminescence intensity (CPS) was measured using a multilabel counter, ARVOSX 1420 (manufactured by PerkinElmer) and an ROS scavenging rate was calculated according to the following calculation equation. […] Incidentally, as the test substance, the following substances were used. Further, as a positive control substance, 20 nM staurosporine (a known phorbol ester signal inhibitor) was used.

[3] = system: peritoneum (ultrafiltration capacity); experiment: Peritoneal equilibration test after repeated peritoneal dialysis fluid administration (water removal rate), Example 3; format: in vivo, Wistar male rat; conditions: 0.1% (w/v) in Midpeliq 250, into the peritoneal cavity once daily 15 mL/body for 7 days; vs control group; FIG. 1; CSC 10 kDa by method of Example 2
Method: To a Wistar male rat at 8 weeks of age, Midpeliq 250 (trade name, a peritoneal dialysis fluid containing glucose at a concentration of 2.5% (w/v) manufactured by Terumo Corporation) in which a test substance was dissolved at a concentration of 0.1% (w/v) was repetitively administered into the peritoneal cavity once daily at 15 mL/body for 7 days under ether anesthesia. To a control group (Control), Midpeliq 250 was administered in the same manner. On the next day after the final administration, a peritoneal equilibration test was performed, and the peritoneal function was evaluated. To be more specific, Midpeliq 250 was injected into the peritoneal cavity at 60 mL/kg, and 4 hours thereafter, the fluid remaining in the peritoneal cavity was recovered. The amount of the recovered fluid was measured, and the ultrafiltration capacity (water removal rate) of the peritoneum was evaluated.

[4] = Table 4, test substance 0.1% (w/v), CSC 10 kDa by method of Example 1

Compound	ROS scavenging rate [2, 4] [%]	other results
N=C(N)NN [Aminoguanidine, aminoguanidine]		Inhibition rate of AGE production [1]: 52.7%
CN[C@@H]1C[C@H]2O[C@@](C)([C@@H]1OC)n1c3ccccc3c3c4c(c5c6ccccc6n2c5c31)C(=O)NC4 [Staurosporine, staurosporine, reference compound]		ROS scavenging rate ([2]; Table 4, positive control substance 20 nM): 97.4%; ROS scavenging rate ([2]; Table 5, positive control substance 20 nM): 98.1%
Chondroitin sulfate A, sodium salt (whale cartilage), SG [CSA 30 kDa]	33.4	
Chondroitin sulfate C, sodium salt (shark cartilage), SG [CSC 30 kDa]	5.0	effect of protecting the peritoneum (action of inhibiting a decrease in water removal rate) [3]: statistically significant effect was not observed
Chondroitin sulfate E, sodium salt (squid cartilage) [CSE 75 kDa]	21.9	
Chondroitin, sodium salt [Ch 5 kDa]	13.6	
